For assay [1], the system named is Classical pathway C5b deposition. As to the kind of experiment: Classical pathway C5b (neo-epitope) deposition ELISA, SVAR kit. It counts as biochemical, human. As to conditions: chemFE peptides, Example 10; result in words. From the text:
(§1) To elucidate the functional consequences of the knob domain peptides binding to human C5, we performed complement activation assays using the SVAR complement activation ELISA which measured CP (Classical Pathway) and AP (Alternative Pathway) activation in human serum, through formation of the C5b neo-epitope. We also developed orthogonal ELISA assays which measured total complement and AP specific mediated C3b and MAC (Membrane Attack Complex) deposition. For all activation conditions, we also tracked C5a release via ELISA.
(§2) For the C5b ELISA, assays were run using the CP and AP Complement functional ELISA kits (SVAR), as per the manufacturer's protocol. For sample preparation: serum was diluted as per the respective protocol for the CP and AP assays. Titrations of peptides were prepared and allowed to incubate for 15 minutes at room temperature, prior to plating.
(§3) Functional activity of chemically derived knob domain peptides was confirmed in a complement activation ELISAs which measured inhibition of C5b neoepitope deposition.
(§4) Finally, we tested our constructs in AP and CP complement activation ELISAs, which measured C5b neoepitope deposition.
(§5) Complement ELISA: assays were run using the CP and AP Complement functional ELISA kits (SVAR, COMPL 300 RUO), as per the manufacturer's protocol. For sample preparation, serum was diluted as per the respective protocol for the CP and AP assays; serial dilutions of peptides were prepared and allowed to incubate with serum for 15 minutes at room temperature, prior to plating.
In general terms: In an ELISA, binding on a coated surface is turned into a signal by an enzyme label.

Assay [2] concerns Alternative pathway C5b deposition. As to the kind of experiment: Alternative pathway C5b (neo-epitope) deposition ELISA, SVAR kit. It counts as biochemical, human. The following applies: chemFE peptides, Example 10; result in words.
Source text: as §1, §2, §3, §4, §5

Assay [3] addresses T1, C5 (Homo sapiens, UniProt P01031). As to the kind of experiment: Biacore multi-cycle kinetics on human C5. It counts as binding. The following applies: for mean stoichiometric ratio: measured Rmax divided by theoretical Rmax. The method, then: Binding of knob domain peptides to human C5 was measured by SPR, using a multi-cycle kinetics method as follows:
Kinetics were measured using a Biacore 8K (GE Healthcare) with a CM5 chip, which was prepared as follows: EDC/NHS was mixed at 1:1 ratio (flow rate, 10 μL/min; contact time, 30 seconds), human C5 protein at 1 μg/mL in pH 4.5 sodium-acetate buffer, were injected over flow cell one only (flow rate, 10 μL/min; contact time, 60 seconds). Final immobilization levels in the range of 2000-3000 response units (RU) were obtained, to yield theoretical Rmax values of ˜50-60 RU. Serial dilutions of peptide were prepared in HBS-EP buffer and injected (flow rate, 30 μL/min; contact time, 240 seconds; dissociation time, 6000 seconds). After each injection, the surface was regenerated with two sequential injections of 2M MgCl2 (flow rate, […]; contact time, 30 seconds). Binding to the reference surface was subtracted, and the data were fitted to a single site binding model, using Biacore evaluation software.

The subject of the next assay is rabbit erythrocytes. As to the kind of experiment: Alternative pathway haemolysis assay. The following applies: normal human sera; result in words. It counts as cell-based. The method, then:
Haemolysis assays: For AP, 50 μL of 24% normal human sera (Complement Technology), 50 of 20 mM MgEGTA (Complement Technology), and 48 μL of GVB0 buffer (0.1% gelatin, […], 145 mM NaCl, 0.025% NaN3, pH 7.3, Complement Technology) were aliquoted into a single well of a 96-well tissue culture plate (USA Scientific) then mixed with 2 μL of inhibitors serially diluted in DMSO. Following equilibration for 15 minutes at room temperature, 50 μL of rabbit erythrocytes (Complement Technology), at 2.5×10^7 per well, were added to the plates, which were then incubated at 37° C. for 30 minutes. Plates were centrifuged at 1,000×g for 3 min and 100 μL of supernatant was collected, transferred to another 96-well tissue culture treated plate, and absorbance was measured at 412 nm. For CP, […], 48 μL of GVB++ buffer (0.1% gelatin, 5 mM Veronal, 145 mM NaCl, 0.025% NaN3, pH 7.3 with 0.15 mM CaCl2 and 0.5 mM MgCl2, Complement Technology) and 2 μL of inhibitors serially diluted in DMSO were aliquoted into a single well and equilibrated as described. Next, 100 μL of antibody-sensitized sheep red blood cells (Complement Technology) at 5×10^7 per well were added to the plate, which was then incubated at 37° C. for 1 hour. Samples were subsequently processed as described.

Assay [4] has as its target T1, C5. As to the kind of experiment: Biacore (SPR) single-cycle kinetics on immobilised C5. It counts as binding. The following applies: for kd: chemically derived knob domain peptides, n = 1; for kon: read-out: ka. The method, then: Binding to C5 was measured using surface plasmon resonance (SPR) single-cycle kinetics as described below.
Biacore single-cycle kinetics. Using a Biacore 8K (GE Healthcare), C5 was immobilized on a CM5 chip by amine coupling. Flow cells were activated using EDC/NHS (flow rate, 10 μL/min; contact time, 30 s). C5, at 1 μg/mL in pH 4.5 Sodium-acetate buffer, was immobilized on flow cell two only (flow rate, 10 μL/min; contact time, 420 s). Finally, ethanolamine was applied to both flow cells (flow rate, 10 μL/min; contact time, 420 s). A final immobilization level of approximately 2,000 response units was obtained.
Single-cycle kinetics were measured using titrations in HBS-EP buffer. A high flow rate of 40 μL/min was used, with a contact time of 230 s and a dissociation time of 900 s. Binding to the reference surface was subtracted, and the data were fitted to a single-site binding model using Biacore evaluation software.
We measured individual rate constants (kon and koff) and equilibrium dissociation constants (KD) for knob domain peptides binding to C5 by the Biacore single-cycle kinetics method described above.
We used SPR single cycle kinetics to measure binding to human C5 protein.
A general note: SPR reads the build-up and loss of mass on a sensor chip optically.

[5] abbreviates: read-out: mean Koff, multi-cycle kinetics, n = 3 experiments.
[6] abbreviates: read-out: mean Kon, multi-cycle kinetics, n = 3 experiments.

Like-named read-outs stand apart in the source and are kept apart here. Bridge positions count the residues as written; N and C are the ends. Peptide text beside a SMILES is read from it.

For orientation: Kd means the free concentration of one partner at which half of the binding sites on the other are occupied at equilibrium, for simple one-to-one binding. By koff is commonly meant a measure of how fast the partners let go of each other.

T1 sequence (P01031 19-1676): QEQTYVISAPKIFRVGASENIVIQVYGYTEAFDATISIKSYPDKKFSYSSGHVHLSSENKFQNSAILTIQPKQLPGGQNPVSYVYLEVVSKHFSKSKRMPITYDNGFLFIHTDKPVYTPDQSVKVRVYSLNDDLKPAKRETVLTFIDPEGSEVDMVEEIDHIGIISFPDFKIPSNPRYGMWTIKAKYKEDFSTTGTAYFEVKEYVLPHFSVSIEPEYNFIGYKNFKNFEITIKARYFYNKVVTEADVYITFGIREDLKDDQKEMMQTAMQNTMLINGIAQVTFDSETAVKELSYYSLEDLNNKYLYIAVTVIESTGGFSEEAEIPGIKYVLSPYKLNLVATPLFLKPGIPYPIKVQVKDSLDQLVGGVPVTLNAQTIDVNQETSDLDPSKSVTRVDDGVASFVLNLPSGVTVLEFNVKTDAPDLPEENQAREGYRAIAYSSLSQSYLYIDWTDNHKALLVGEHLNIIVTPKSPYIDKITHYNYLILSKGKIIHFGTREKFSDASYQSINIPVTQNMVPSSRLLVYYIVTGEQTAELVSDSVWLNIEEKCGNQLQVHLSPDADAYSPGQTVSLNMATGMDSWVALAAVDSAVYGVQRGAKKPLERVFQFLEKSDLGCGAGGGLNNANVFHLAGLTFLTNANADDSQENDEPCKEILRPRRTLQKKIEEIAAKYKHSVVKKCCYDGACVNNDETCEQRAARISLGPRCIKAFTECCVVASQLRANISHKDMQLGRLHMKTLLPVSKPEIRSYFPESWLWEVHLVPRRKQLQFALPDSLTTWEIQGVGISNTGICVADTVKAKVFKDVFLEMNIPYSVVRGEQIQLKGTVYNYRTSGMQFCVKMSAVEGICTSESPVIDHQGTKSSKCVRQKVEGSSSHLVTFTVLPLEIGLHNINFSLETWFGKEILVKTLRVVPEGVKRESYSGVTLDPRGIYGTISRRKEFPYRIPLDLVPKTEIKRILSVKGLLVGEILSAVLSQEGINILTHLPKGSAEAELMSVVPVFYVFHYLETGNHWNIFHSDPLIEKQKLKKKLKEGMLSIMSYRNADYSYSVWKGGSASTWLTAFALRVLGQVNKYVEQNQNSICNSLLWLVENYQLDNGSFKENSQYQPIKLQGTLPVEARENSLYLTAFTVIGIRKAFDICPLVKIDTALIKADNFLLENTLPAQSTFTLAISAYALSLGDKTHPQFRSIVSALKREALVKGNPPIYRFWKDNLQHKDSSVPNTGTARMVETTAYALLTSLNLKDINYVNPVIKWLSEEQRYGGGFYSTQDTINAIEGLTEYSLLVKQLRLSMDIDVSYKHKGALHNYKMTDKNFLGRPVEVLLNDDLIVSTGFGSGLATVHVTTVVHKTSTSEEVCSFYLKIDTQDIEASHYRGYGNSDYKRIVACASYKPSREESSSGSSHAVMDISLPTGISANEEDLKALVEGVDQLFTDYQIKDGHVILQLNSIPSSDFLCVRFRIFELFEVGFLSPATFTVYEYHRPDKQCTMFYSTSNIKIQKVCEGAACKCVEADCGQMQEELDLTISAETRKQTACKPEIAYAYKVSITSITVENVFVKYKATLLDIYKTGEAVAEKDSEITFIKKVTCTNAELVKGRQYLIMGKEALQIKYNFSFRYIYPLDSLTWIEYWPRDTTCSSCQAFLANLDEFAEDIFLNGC

For the compound `CSCC[C@@H]1NC(=O)[C@@H]2CCCN2C(=O)[C@@H](NC(=O)[C@@H]2CSSC[C@H](NC(=O)[C@@H](N)CO)C(=O)N3CCC[C@H]3C(=O)N[C@@H](CC(=O)O)C(=O)NCC(=O)N[C@@H](Cc3ccccc3)C(=O)N[C@@H](CO)C(=O)N[C@@H](Cc3ccc(O)cc3)C(=O)N[C@@H](CCCNC(=N)N)C(=O)N[C@@H](CO)C(=O)N[C@@H](Cc3c[nH]c4ccccc34)C(=O)N[C@@H](CC(=O)O)C(=O)N[C@@H](CC(=O)O)C(=O)N[C@@H](Cc3ccccc3)C(=O)N2)CSSC[C@@H](C(=O)N[C@@H](CC(C)C)C(=O)N[C@@H](C)C(=O)N2CCC[C@H]2C(=O)N[C@@H](CCCNC(=N)N)C(=O)N[C@@H](CC(N)=O)C(=O)O)NC(=O)[C@H](CCCNC(=N)N)NC(=O)CNC(=O)[C@H](C(C)C)NC1=O` [K149chemFE] (H-SCPDGFSYRSWDDFCCPMVGRCLAPRN-OH; disulfide 2-15, 16-22 (inferred); N-terminus assumed), the “inhibition of CP, C5b deposition” value in assay [1] was “non-functional, silent binder”. Also, in assay [2], the “inhibition of AP, C5b deposition” value is “non-functional, silent binder”. For the same compound, at C5 [3] (after reduction and capping of cysteines with iodoacetamide (loss of disulphide bonds)), the “binding to C5” value is given as “entirely abrogated binding”. In addition, on C5 [3] (chemical knob domains and variants, result in words), the “binding to human C5” value is on record as “equal affinity”. Besides, at C5 [3] (n = 3 experiments), the mean stoichiometric ratio was found to be 0.85. Also, the Kd on C5 [3] (multi-cycle kinetics, n = 3 experiments, read-out: mean KD) is 5.57 nM.

On to `CC[C@H](C)[C@@H]1NC(=O)[C@H](C)NC(=O)[C@H](C(C)C)NC(=O)CNC(=O)[C@@H]2CSSC[C@@H](C(=O)NCC(=O)N[C@@H](Cc3c[nH]cn3)C(=O)N[C@@H](Cc3ccccc3)C(=O)N[C@@H](CC(C)C)C(=O)N[C@@H](CC(N)=O)C(=O)N[C@@H](CO)C(=O)NCC(=O)N3CCC[C@H]3C(=O)N[C@@H](CC(N)=O)C(=O)N[C@H](C(=O)N[C@@H](CO)C(=O)N3CCC[C@H]3C(=O)N[C@@H](Cc3ccc(O)cc3)C(=O)N[C@H](C(=O)N[C@@H](CO)C(=O)N[C@H](C(=O)O)[C@@H](C)O)C(C)C)[C@@H](C)CC)NC(=O)CNC(=O)[C@H](Cc3c[nH]c4ccccc34)NC(=O)[C@H](CCCNC(=N)N)NC(=O)CNC(=O)[C@H](CSSC[C@H](NC(=O)[C@@H](N)[C@@H](C)O)C(=O)N3CCC[C@H]3C(=O)N[C@@H](CCC(=O)O)C(=O)NCC(=O)N[C@@H](Cc3c[nH]c4ccccc34)C(=O)N[C@@H](CO)C(=O)N[C@@H](CCC(=O)O)C(=O)N2)NC(=O)[C@H](CCC(=O)O)NC(=O)[C@H](Cc2ccc(O)cc2)NC(=O)CNC(=O)[C@H](Cc2ccc(O)cc2)NC1=O` [K92chemFE] (H-TCPEGWSECGVAIYGYECGRWGCGHFLNSGPNISPYVST-OH; disulfide 2-18, 9-23), for which, in assay [1], the “inhibition of CP, C5b deposition” value is recorded as “modest, dose dependent enhancement”. For the same compound, in assay [2], the “inhibition of AP, C5b deposition” value is “partially inhibited”. The mean stoichiometric ratio at C5 [3] (n = 3 experiments) stood at 0.40. Further, the koff on C5 [3] (multi-cycle kinetics, n = 3 experiments, read-out: mean Koff) is 0.000101 s⁻¹. Further, on C5 [3] (multi-cycle kinetics, n = 3 experiments, read-out: mean Kon), the kon is 283000 M⁻¹ s⁻¹. Moreover, the “inhibition of haemolysis, AP” value with rabbit erythrocytes was “active solely in the AP-driven haemolysis assay”.

Regarding `CSCC[C@@H]1NC(=O)[C@@H]2CCCN2C(=O)[C@@H](NC(=O)[C@@H]2CSSC[C@H](NC(=O)[C@@H](N)CO)C(=O)N3CCC[C@H]3C(=O)N[C@@H](CC(=O)O)C(=O)NCC(=O)N[C@@H](Cc3ccccc3)C(=O)N[C@@H](CO)C(=O)N[C@@H](Cc3ccc(O)cc3)C(=O)N[C@@H](CCCNC(=N)N)C(=O)N[C@@H](CO)C(=O)N[C@@H](Cc3c[nH]c4ccccc34)C(=O)N[C@@H](CC(=O)O)C(=O)N[C@@H](CC(=O)O)C(=O)N[C@@H](Cc3ccccc3)C(=O)N2)CSSC[C@@H](C(=O)N[C@@H](CC(C)C)C(=O)N[C@@H](C)C(=O)N2CCC[C@H]2C(=O)N[C@@H](CCCNC(=N)N)C(=O)N[C@@H](CC(N)=O)C(=O)O)NC(=O)[C@H](CCCNC(=N)N)NC(=O)CNC(=O)[C@H](C(C)C)NC1=O` (H-SCPDGFSYRSWDDFCCPMVGRCLAPRN-OH; disulfide 2-15, 16-22; N-terminus assumed), at C5 [4], binding was put at a Kd of 6.17 nM, the kd turned out to be 0.00723 s⁻¹ and the kon worked out at 1.17e+06 M⁻¹ s⁻¹. Further, the “fold more potent than K149B” value on C5 [4] (site directed disulphide forms of K149) came out at 41 fold. The compound further came in with a Kd on C5 [3] of 7.31 nM. Besides, on C5 [3] (n = 3 experiments, listed as K149chemSD-A), the mean stoichiometric ratio turned out to be 0.82. In addition, on C5 [3] (setting [5]), the off-rate (koff) came to 0.00484 s⁻¹. For the same compound, the kon at C5 [3] (setting [6]) was 713000 M⁻¹ s⁻¹.

Turning to `CSCC[C@@H]1NC(=O)[C@@H]2CCCN2C(=O)[C@@H]2CSSC[C@H](NC(=O)[C@@H](N)CO)C(=O)N3CCC[C@H]3C(=O)N[C@@H](CC(=O)O)C(=O)NCC(=O)N[C@@H](Cc3ccccc3)C(=O)N[C@@H](CO)C(=O)N[C@@H](Cc3ccc(O)cc3)C(=O)N[C@@H](CCCNC(=N)N)C(=O)N[C@@H](CO)C(=O)N[C@@H](Cc3c[nH]c4ccccc34)C(=O)N[C@@H](CC(=O)O)C(=O)N[C@@H](CC(=O)O)C(=O)N[C@@H](Cc3ccccc3)C(=O)N[C@@H](CSSC[C@@H](C(=O)N[C@@H](CC(C)C)C(=O)N[C@@H](C)C(=O)N3CCC[C@H]3C(=O)N[C@@H](CCCNC(=N)N)C(=O)N[C@@H](CC(N)=O)C(=O)O)NC(=O)[C@H](CCCNC(=N)N)NC(=O)CNC(=O)[C@H](C(C)C)NC1=O)C(=O)N2` [K149B] (H-SCPDGFSYRSWDDFCCPMVGRCLAPRN-OH; disulfide 2-16, 15-22; N-terminus assumed), on C5 [4], binding was characterised by a dissociation constant (Kd) of 246 nM, the kd was determined as 0.00732 s⁻¹ and the kon was 29700 M⁻¹ s⁻¹. Further, on C5 [3], the Kd amounted to 269 nM and the “fold lower affinity (relative to K149chemSD-A)” value is “approximately 35 fold”. For the same compound, the mean stoichiometric ratio at C5 [3] (n = 3 experiments) is 0.81. Moreover, the koff at C5 [3] (setting [5]) worked out at 0.00417 s⁻¹. In addition, the kon at C5 [3] (setting [6]) was 15600 M⁻¹ s⁻¹.
